Experimental data taken from patent US8637561B2, “Linked diimidazole derivatives” (Enanta Pharmaceuticals, Inc., priority 2009, dated 2014).

System: HCV 1b genotype replicon
Test: HCV replicon assay (qRT-PCR or luciferase), genotype 1b
Type: cell-based
Conditions: Hepatitis C virus, read-out: Genotype-1b replicon EC50 Range
Description: HCV replicon cell lines (kindly provided by R. Bartenschlager) isolated from colonies as described by Lohman et al. (Lohman et al. (1999) Science 285: 110-113, expressly incorporated by reference in its entirety) and used for all experiments. The HCV replicon has the nucleic acid sequence set forth in EMBL Accession No.: AJ242651, the coding sequence of which is from nucleotides 1801 to 8406.
The coding sequence of the published HCV replicon was synthesized and subsequently assembled in a modified plasmid pBR322 (Promega, Madison, Wis.) using standard molecular biology techniques. One replicon cell line (“SGR 11-7”) stably expresses HCV replicon RNA which consists of (i) the HCV 5′UTR fused to the first 12 amino acids of the capsid protein, (ii) the neomycin phosphotransferase gene (neo), (iii) the IRES from encephalomyocarditis virus (EMCV), and (iv) HCV NS2 to NS5B genes and the HCV 3′UTR. […]
EC50 values of single agent compounds and combinations were determined by HCV RNA detection using quantitative RT-PCR, according to the manufacturer's instructions, with a TaqMan® One-Step RT-PCR Master Mix Reagents Kit (Cat# AB 4309169, Applied Biosystems) on an ABI Model 7500 thermocycler. The TaqMan primers used for detecting and quantifying HCV RNA were obtained from Integrated DNA Technologies. HCV RNA was normalized to GAPDH RNA levels in drug-treated cells, which is detected and quantified using the Human GAPDH Endogenous Control Mix (Applied Biosystems, AB 4310884E). […] Chemical agent cytotoxicity is evaluated using an MTS assay according to the manufacturer's directions (Promega). […]

Structure (SMILES) | EC50 [nM]
COC(=O)N[C@@H](C(=O)N1CCC[C@H]1c1ncc(C#Cc2ccc(-c3cnc([C@@H]4CCCN4C(=O)[C@H](NC(=O)OC)c4ccccc4)[nH]3)cc2)[nH]1)c1ccccc1 [Example 299] | < 1
COC(=O)N[C@@H](C(=O)N1CCC[C@H]1c1ncc(CCc2ccc(-c3cnc([C@@H]4CCCN4C(=O)[C@H](NC(=O)OC)c4ccccc4)[nH]3)cc2)[nH]1)c1ccccc1 [Example 361] | < 1
COC(=O)N[C@@H](C(=O)N1CCC[C@H]1c1nc(C2=CCC(c3ccc(-c4cnc([C@@H]5CCCN5C(=O)[C@H](NC(=O)OC)c5ccccc5)[nH]4)cc3)CC2)c[nH]1)c1ccccc1 (stereo partly drawn) [Example 1-b] | < 1
